From US10827753B2, “Compositions and methods for controlling nematodes” (Monsanto Technology LLC, priority 2007, dated 2020)
Marks after values point to notes of the source that are not given here.

How the values were obtained:
[1] = tested on: Heterodera glycines (SCN); experiment: Seed treatment test of soybean cyst nematode on soybean plants; assay type: in vivo
Description: For a given concentration the chemical is dissolved in 500 ul of acetone and one gram of cucumber seed (RKN test) or soybean seed (SCN test) is added (e.g., 20 mg active ingredient in 500 ul acetone plus 1 gram of seed). The seed solutions are agitated until all seeds were thoroughly covered with the chemical solution. The acetone is then allowed to evaporate by air drying the seeds. The seeds are planted in 2-inch pots containing sandy soil and then the pots are inoculated with 1000 Meloidogyne incognita (RKN) or 1000 Heterodera glycines (SCN) eggs per pot three days after planting. Plants are rated for galling 14 days after egg inoculation for RKN or 28 days after egg inoculation for SCN.

Meloidogyne incognita [2] = experiment: M. incognita miniaturized greenhouse assay on cucumber seedlings (root galling); assay type: in vivo; parameters: key to 1 ppm gall ratings / 1 ppm gall rating: mean of 3 gall ratings: 0=0-5%, 1=6-20%, 2=21-50%, 3=51-100% root galled
Method in brief: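 Compound in acetone/Triton X100 stock (5 mg/mL) diluted into water with 0.015% Triton X100 and applied to sand-planted sprouted cucumber seedlings; inoculated with 500 M. incognita eggs two days after planting. Roots harvested 10–12 days later; galling scored 0–3 by % root mass galled, averaged over triplicates, plus visual root phytotoxicity rating.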

[3] = tested on: caspase-3 in rat hepatoma derived H4IIE cells; experiment: Caspase-3 activity (DEVD-AMC) after compound exposure in H4IIE cells; assay type: cell-based; settings: concentrations up to 300 μM
Description: Caspase 3 cleaves the tetrapeptide between D and AMC, thus releasing the fluorogenic […] AMC. Following the test article exposure to cells in 96-well plates, medium was aspirated from plates and PBS added to each well. Plates were stored at −80° C. to lyse cells and store samples until further analysis. On the day of analysis, plates were removed from freezer and thawed. Caspase buffer with fluorescent substrate was added to each well and incubated at room temperature for one hour. AMC release was measured in a spectrofluorometer at an excitation wavelength of 360 nm and an emission wavelength of 460 nm. Values are expressed as relative fluorescent units (RFU).

root knot nematode = experiment: Pre-plant incorporated (PPI) greenhouse test of root knot nematode on cucumber plants; assay type: in vivo, Meloidogyne incognita; settings: Meloidogyne incognita, fourteen day pre-plant incorporated, test b, read-out: percent control (galling reduction) relative to the control blank treatment; for pest or weed control at 4000 g/ha: 4 kg/ha rate; for pest or weed control at 8000 g/ha: 8 ka/ha rate
Description: The PPI test examines the effect of pre-incorporation of compounds in soil and longer aging to simulate in furrow methods of nematicide application in the field. The PPI test exposes compounds to a higher volume of soil and drying which can result in more severe soil binding. Compounds are also aged for longer periods which can lead to more extensive biotic and abiotic degradation further limiting activity.
The chemically treated soil (sandy soil mix) for all treatment days (e.g., 7 days, 14 days, 21 days) treatments is potted into their appropriate pots. On the same day the 7 day treatment pots are seeded. One week later eggs are applied and 14 days after egg application the test is harvested. The 14 day treatments are planted 7 days after the first planting. The 14 day planting and 7 day inoculation happen on the same day. One week later the 14 day treatments are inoculated with eggs. These are harvested 14 days after the inoculation. The 21 day treatments are planted 14 days after the first planting. The 14 day inoculation and 21 day planting are done on the same day. One week later the 21 day plants are inoculated with eggs. The 7 day treatment is harvested the same day as the 21 day inoculation. Fourteen days after inoculation the 21 day plants are harvested.
For each compound a stock is prepared using 4 mg material in 4 ml of acetone. The soil is mixed by placing 80 ml of field soil and 320 ml of sand in a plastic bag and mixing well. The formulation for treatment is done by adding 2.13 ml (8 kg/ha rate), 1.06 ml (4 kg/ha rate) or 0.53 ml (2 kg/ha rate) to a vial and raising it with 10 ml in 0.05%×100. Soil is then treated by adding the entire 10 ml to the 400 ml of mix in the bag. The treated soil is immediately mixed well in the sealed bag to distribute the compound evenly. Approximately 95 ml is used to fill each 2-inch square pot up to the top with some soil compression and flattening. For each compound and for the control treatments 4 pots are filled. All pots are watered until moist but with no run-out through the bottom.
The PPI test simulates 8, 4 and 2 kg/ha rates incorporated 15 cm deep in the field and is equivalent to the 2, 1 and 0.5 kg/ha drench application rates in the standard 2-inch pot cucumber greenhouse assay.

Meloidogyne incognita [4] = experiment: Summer field evaluation of pre-plant incorporated compounds on squash; assay type: in vivo; settings: for 0-3 vigor 16 DAP / 0-3 vigor 21 DAP / feeder root (3 = ave) 31 DAP / gall % 31 DAP / root wgt (g) 31 DAP / top wgt (lbs) 31 DAP / total fruit (lbs): 4 kg (kg/ha) PPI, squash
Method in brief: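 PPI simulation: compound in acetone/Triton X-100 and water mixed into 80% sand/20% silt loam with chopped galled tomato roots, filling top 15 cm of 6 replicate field plots. M. incognita eggs/larvae (100 k per plot) injected 5 cm deep; three-week-old squash cv. Liberator III planted 4 days after treatment.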

mice = settings: cited from earlier work
Meloidogyne incognita [5] = experiment: Fall nematicidal field testing on squash microplots; assay type: in vivo; settings: for RG28 = % root galls at 28 days after treatment / RG43 = % root galls at 43 days after treatment: squash
Description: The test site was located at 3511 Highway F in New Melle, Mo., Saint Charles county. The soil was a native prairie/pasture covering silty clay loam soil. Holes were dug using a Bobcat 763 skid loader with a 12-inch auger to a depth of 18 inches. Total volume of each hole was about 1.2 cubic feet. Six cubic yards of topsoil and 9 tons of river sand were purchased from Dardenne Farms Topsoil. Mixing to a ratio of 4 volumes sand to 1 volume soil was accomplished using a trailer-mounted 9 cubic foot concrete mixer. Holes were filled and then re-filled 5 days later after settling. The mixture was 92.5% sand, 2.5% silt, and 5% clay. Organic matter was 0.2% and pH was 6.8.
Treatments were arranged in a block design with the blocks laid out perpendicular to the primary slope and parallel to secondary slope. There are 7 inoculated controls and 5 non-inoculated controls and the distributions of disease severity appeared independent of location.
Application rates are expressed as kg of active material per hectare, and the mg per plot is based on the surface area of the bored and filled holes (0.000008559 Ha). The DC compounds were formulated immediately before application as follows: 1) the amount required to treat all six replicates was dissolved in 300 ml of acetone, 2) for each plot 50 ml of that solution was added to a graduated cylinder with 2 ml of 12.5% Triton X100 and the volume was raised to 500 ml with tap water. The resultant mix is the same as used in the standard greenhouse assays (10% acetone, 0.05%×100). The oxamyl treatments were prepared from Vydate 2 L formulated the same way. The 500 ml was placed in a watering can and the entire volume was evenly sprinkled over the surface of the plot. No runoff occurred and pooling, if any, was short lived. The final drench volume was 0.58 ml/cm^2, compared to 0.2 ml/cm^2 used in our greenhouse, however the microplots are much deeper so the drench volume applied per soil volume treated is roughly the same.
Meloidogyne incognita eggs were harvested over a two week period and stored at approximately 5° C. until needed. A stock of 5.6 million vermiform eggs was adjusted to 9000/ml in 620 ml. One day after treatment, two holes were made in each plot about 7 cm apart and equidistant from the squash plants. Five ml of egg suspension was pipetted into each hole, which was then sealed and the plot lightly watered. A total of 90,000 vermiform eggs were added to each plot.
The first root evaluation was at 28 DAT. The tops were cut off and weighed immediately in the field, and the roots were carefully dug out so as not to disturb the remaining plant.

[6] = tested on: sting (Belonolaimus longicaudatus) nematodes; experiment: Sting nematode bench top soil assay; assay type: in vivo
Description: Populations of sting (Belonolaimus longicaudatus) nematodes are maintained on St. Augustine turf grass on soil in 15-cm pots. At test initiation the turf is removed from the pots and the soil containing nematode eggs, juveniles, and adults is subdivided into pots each containing a volume of 125 cm^3′ The compounds to be tested are dissolved in 3 ml of acetone using 3, 6, or 15 mg to achieve equivalent surface area application rates of 2, 4, or 10 kg/ha, respectively. The 3 ml acetone stock solution is added to 30 ml of water, and 5 ml of that solution is used to drench each of 6 replicate test pots prepared as described above. The treated pots containing nematodes are incubated in the laboratory at ambient temperature of approximately 25° C. After 3 days the soil from each pot is washed onto a modified Baermann apparatus comprised of a screen supporting a layer of filter paper on which the soil sample is placed and set in a dish of water. The samples are then incubated at 25° C. for 24 hours to allow the live nematodes to migrate through the paper and screen and into a water reservoir to be collected for counting with a light microscope. Nematodes that have been killed or immobilized by the test compounds are not able to migrate into the reservoir.

[7] = tested on: CD-1/Swiss derived albino mice; assay type: in vivo; settings: 500 mg/kg oral, three female mice, observed up to 14 days
Description: Acute oral toxicity testing was performed in mice in accordance with test method P203.UDP, as administered by Eurofins/Product Safety Laboratories (Dayton, N.J.). CD-1/Swiss derived albino mice were obtained and group housed in suspended solid bottom caging. The mice were fed rodent chow and filtered tap water was supplied ad libitum. Following acclimation to the laboratory setting, a group of animals was fasted overnight by removing food from the cages. After the fasting period, three female mice were selected based on vitality and initial body weights. The individual compound doses were calculated from these body weights.
The test substance was prepared as a 1% (50 mg/kg) or 5% (500 mg/kg) weight to weight (w/w) mixture in a 0.5% w/w solution of carboxymethylcellulose (CMC) in distilled water. A tissue homogenizer was used to create a homogeneous mixture. A dose of 50 or 500 mg/kg was administered to three healthy mice per dose level by oral intubation using a ball-tipped gavage needle attached to a syringe. After administration, the animals were returned to their cages, and feed was replaced immediately after dosing.
Body weights were recorded prior to initiation and on Days 7 and 14 or a soon as possible after death.

SMILES: CS/C(C)=N\OC(=O)N(C)SN(C)C(=O)O/N=C(\C)SC [Thiodicarb]
- percent cyst reduction relative to control blank treatment ([1]; 0.375 mg al/gram seed, test a): 6^a percent
- percent cyst reduction relative to control blank treatment ([1]; 1.5 mg al/gram seed, test a): −23^a percent

SMILES: Cc1cc(Cl)ccc1-c1nsc(-c2ccco2)n1 [compound 5938]
- 1 ppm gall ratings (Meloidogyne incognita [2]; Table 1B test e): 0.67^e
- induction of caspase-3 (apoptosis marker) [3]: no induction of caspase-3
- pest or weed control at 4000 g/ha (root knot nematode): 90%
- pest or weed control at 8000 g/ha (root knot nematode): 100%
- 0-3 vigor 16 DAP (Meloidogyne incognita [4]): 2.5
- 0-3 vigor 21 DAP (Meloidogyne incognita [4]): 2.7
- feeder root (3 = ave) 31 DAP (Meloidogyne incognita [4]): 2.7
- gall % 31 DAP (Meloidogyne incognita [4]): 9%
- root wgt (g) 31 DAP (Meloidogyne incognita [4]): 24.1 g
- top wgt (lbs) 31 DAP (Meloidogyne incognita [4]): 1.60 lbs
- total fruit (lbs) (Meloidogyne incognita [4]): 1.22 lbs
- control of M. incognita (in words) (Meloidogyne incognita [4]; PPI application at 4 kg/ha): excellent control

SMILES: CNC(=O)O/N=C/C(C)(C)SC [aldicarb]
- oral LD50 in mice (mice): 0.3 mg/kg

SMILES: Fc1cc(Cl)ccc1-c1cnc(-c2cccs2)o1 [compound 5915]
- 1 ppm gall ratings (Meloidogyne incognita [2]; Table 1B test e): 0.33^e
- induction of caspase-3 (apoptosis marker) [3]: no induction of caspase-3
- pest or weed control at 4000 g/ha (root knot nematode): 70%
- pest or weed control at 8000 g/ha (root knot nematode): 99%

SMILES: CNC(=O)O/N=C(\SC)C(=O)N(C)C [Oxamyl, oxamyl, reference compound]
- gall ratings (Meloidogyne incognita [2]; 1 ppm (oxamyl standard of Table 1A), average of triplicate, scale 0-3): 0.67 (1 ppm)
- 1 ppm gall ratings (Meloidogyne incognita [2]; Table 1B test a): 0.67
- 1 ppm gall ratings (Meloidogyne incognita [2]; Table 1B test b): 1 (1=6-20%)
- 1 ppm gall ratings (Meloidogyne incognita [2]; Table 1B test c): 1.33
- 1 ppm gall ratings (Meloidogyne incognita [2]; Table 1B test d): 1.33
- 1 ppm gall ratings (Meloidogyne incognita [2]; Table 1B test e): 1 (1=6-20%)
- 1 ppm gall rating (Meloidogyne incognita [2]; Table 1C test a): 1.33
- 1 ppm gall rating (Meloidogyne incognita [2]; Table 1C test b): 1 (1=6-20%)
- 1 ppm gall rating (Meloidogyne incognita [2]; Table 1C test c): 0.67^c
- 1 ppm gall rating (Meloidogyne incognita [2]; Table 1D test a): 1.33^a,
- 1 ppm gall rating (Meloidogyne incognita [2]; Table 1D test b): 1^b (1=6-20%)
- oral LD50 in mice (mice): 2.3 mg/kg
- RG28 = % root galls at 28 days after treatment (Meloidogyne incognita [5]; 2 kg ai/ha drench): 45.0%
- RG43 = % root galls at 43 days after treatment (Meloidogyne incognita [5]; 2 kg ai/ha drench): 42.3%
- RG28 = % root galls at 28 days after treatment (Meloidogyne incognita [5]; 5 kg ai/ha drench): 10.5%
- RG43 = % root galls at 43 days after treatment (Meloidogyne incognita [5]; 5 kg ai/ha drench): 17.3%
- percent cyst reduction relative to control blank treatment ([1]; 0.375 mg al/gram seed, test b): −4^b percent
- percent cyst reduction relative to control blank treatment ([1]; 1.5 mg al/gram seed, test b): 71^b percent
- 0-3 vigor 16 DAP (Meloidogyne incognita [4]): 2.7
- 0-3 vigor 21 DAP (Meloidogyne incognita [4]): 2.5
- feeder root (3 = ave) 31 DAP (Meloidogyne incognita [4]): 3.0
- gall % 31 DAP (Meloidogyne incognita [4]): 85%
- root wgt (g) 31 DAP (Meloidogyne incognita [4]): 37.0 g
- top wgt (lbs) 31 DAP (Meloidogyne incognita [4]): 1.16 lbs
- total fruit (lbs) (Meloidogyne incognita [4]): 1.09 lbs

SMILES: c1ccc(-c2cnc(-c3cccs3)o2)cc1 [compound 4417]
- 8 ppm gall ratings (Meloidogyne incognita [2]; 8 ppm, average of triplicate gall rating, scale 0-3 (% root mass galled)): 0.33
- Number of nematodes recovered from treated soil after 3 days incubation with the compound ([6]; 2 kg/ha): 24
- Number of nematodes recovered from treated soil after 3 days incubation with the compound ([6]; 4 kg/ha): 13
- Number of nematodes recovered from treated soil after 3 days incubation with the compound ([6]; 10 kg/ha): 7
- RG28 = % root galls at 28 days after treatment (Meloidogyne incognita [5]; 2 kg ai/ha drench): 25.5%
- RG43 = % root galls at 43 days after treatment (Meloidogyne incognita [5]; 2 kg ai/ha drench): 38.2%
- root weights (in words) (Meloidogyne incognita [5]; 2 kg/ha, 28 DAT): not affected
- top weights (in words) (Meloidogyne incognita [5]; 2 kg/ha, 28 DAT): reduction in top weights
- Leaf diameter of the first true leaves (Meloidogyne incognita [5]; 2 kg/ha, five days after treatment (5 DAT)): slight reduction
- phytotoxicity on squash seedlings (Meloidogyne incognita [5]; 2 kg/ha, two days after treatment): slight phytotoxicity
- mortality, signs of gross toxicity and behavioral changes [7]: One animal died within four days
